Some results are limits rather than exact numbers.

The target of this test is T1, KSP (Homo sapiens, UniProt P52732).
T1 sequence (P52732 1-1056): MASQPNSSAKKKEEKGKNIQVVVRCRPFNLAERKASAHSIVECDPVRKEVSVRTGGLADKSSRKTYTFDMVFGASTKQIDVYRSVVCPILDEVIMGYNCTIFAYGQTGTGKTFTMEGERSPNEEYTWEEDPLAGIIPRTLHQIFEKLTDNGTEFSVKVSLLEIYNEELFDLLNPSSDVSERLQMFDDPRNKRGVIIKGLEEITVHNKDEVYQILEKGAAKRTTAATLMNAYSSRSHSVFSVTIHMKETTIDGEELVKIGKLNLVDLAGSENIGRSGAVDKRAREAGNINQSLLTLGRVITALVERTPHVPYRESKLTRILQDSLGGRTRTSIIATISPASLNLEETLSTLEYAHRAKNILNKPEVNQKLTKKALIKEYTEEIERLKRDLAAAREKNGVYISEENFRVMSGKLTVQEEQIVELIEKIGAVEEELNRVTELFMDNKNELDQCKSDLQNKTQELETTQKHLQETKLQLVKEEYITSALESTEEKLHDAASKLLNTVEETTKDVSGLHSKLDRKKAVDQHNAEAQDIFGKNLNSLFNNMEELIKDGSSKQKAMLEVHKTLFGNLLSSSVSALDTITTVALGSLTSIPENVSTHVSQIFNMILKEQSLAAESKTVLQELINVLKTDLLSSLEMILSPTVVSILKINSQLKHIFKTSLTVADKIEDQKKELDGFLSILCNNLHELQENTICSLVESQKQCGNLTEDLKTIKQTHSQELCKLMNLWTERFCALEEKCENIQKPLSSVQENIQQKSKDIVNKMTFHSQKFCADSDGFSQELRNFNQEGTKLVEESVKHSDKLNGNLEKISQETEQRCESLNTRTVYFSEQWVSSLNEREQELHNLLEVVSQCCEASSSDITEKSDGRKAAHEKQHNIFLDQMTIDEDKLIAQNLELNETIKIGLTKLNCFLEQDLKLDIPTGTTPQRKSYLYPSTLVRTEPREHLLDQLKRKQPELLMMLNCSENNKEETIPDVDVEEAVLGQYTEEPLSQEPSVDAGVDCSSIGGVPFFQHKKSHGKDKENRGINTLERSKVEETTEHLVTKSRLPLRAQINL
Briefly: KSP inhibitory activity, end-point assay. Type of test: biochemical. To be noted: KSP inhibitory activity based on end-point assay; read-out: IC50 Rating. The text has this: The inhibitory activity of the present compounds towards KSP may be assayed by methods known in the art, for example, by using the methods as described in the examples.
One may read the IC50 as the concentration that gives 50% inhibition. For `CC(C)(C)C1CCc2nc3cc(CN)[nH]c3cc2C1` (stereo not drawn) [Example 25], the half-maximal inhibitory concentration (IC50) was 100 to 1000 nM.
In the case of `CC(C)(C)C1CCc2nc3cc(C(=O)NCc4cccnc4)[nH]c3cc2C1` (stereo not drawn) [Example 19] it was greater than 10000 nM; in that of `CC(C)(C)C1CCc2nc3c(-c4cccc(C#N)c4)c(C(N)=O)[nH]c3cc2C1` (stereo not drawn) [Example 119], greater than 10000 nM.
On to `CC(C)(C)C1CCc2nc3c(C(=O)NCCCO)c[nH]c3cc2C1` (stereo not drawn) [Example 80], for which the IC50 lay within 1000 to 10000 nM.
In the case of `CC(=O)Nc1c[nH]c2cc3c(nc12)CCC(C(C)(C)C)C3` (stereo not drawn) [Example 84] it was 1000 to 10000 nM; in that of `CC(C)(C)C1CCc2nc3cc(C(=O)Nc4nnn[nH]4)[nH]c3cc2C1` (stereo not drawn) [Example 96], 100 to 1000 nM; in that of `CC(=O)c1cc2nc3c(cc2[nH]1)CC(C(C)(C)C)CC3` (stereo not drawn) [Example 30], 100 to 1000 nM.
The same measure for `CC(C)(C)C1CCc2nc3c(C(=O)NN)c[nH]c3cc2C1` (stereo not drawn) [Example 79]: 100 to 1000 nM; for `CC(C)(C)C1CCc2nc3cc(C(=O)NNCCC#N)[nH]c3cc2C1` (stereo not drawn) [Example 99]: greater than 10000 nM.
The same measure for `CC(C)(C)C1CCc2nc3cc(C(O)c4cccc(Cl)c4)[nH]c3cc2C1` (stereo not drawn) [Example 112]: greater than 10000 nM; for `COc1cccc(C(O)c2cc3nc4c(cc3[nH]2)CC(C(C)(C)C)CC4)c1` (stereo not drawn) [Example 110]: greater than 10000 nM; for `CC(C)(C)C1CCc2nc3cc(C(=O)NN)[nH]c3cc2C1` (stereo not drawn) [Example 17]: less than 100 nM.
For `C=CCNC(=O)c1c[nH]c2cc3c(nc12)CCC(C(C)(C)C)C3` (stereo not drawn) [Example 78], the IC50 was greater than 10000 nM.
The same measure for `CCNC(=O)c1cc2nc3c(cc2[nH]1)CC(C(C)(C)C)CC3` (stereo not drawn) [Example 4]: 100 to 1000 nM.
In the case of `CC(C)(C)C1CCc2nc3cc(C(=O)Nc4ccc(O)cc4)[nH]c3cc2C1` (stereo not drawn) [Example 102] it was 100 to 1000 nM; in that of `CCOC(=O)c1[nH]c2cc3c(nc2c1CCCO)CCC(C(C)(C)C)C3` (stereo not drawn) [Example 49], greater than 10000 nM; in that of `CC(C)(C)OC(=O)NCCCc1c(C(N)=O)[nH]c2cc3c(nc12)CCC(C(C)(C)C)C3` (stereo not drawn) [Example 52], greater than 10000 nM.
In the case of `COc1ccc(C(O)c2cc3nc4c(cc3[nH]2)CC(C(C)(C)C)CC4)cc1` (stereo not drawn) [Example 111] it was greater than 10000 nM; in that of `CCOC(=O)c1cc2nc3c(cc2n1C(C)=O)CC(C(C)(C)C)CC3` (stereo not drawn) [Example 42], greater than 10000 nM.
In the case of `CNC(=O)c1cc2nc3c(cc2[nH]1)C[C@@H](C(C)(C)C)CC3` (single isomer, unassigned) [Example 22B], the half-maximal inhibitory concentration (IC50) lay within 100 to 1000 nM.
In the case of `COc1ccc(OC)c(-c2c(C(N)=O)[nH]c3cc4c(nc23)CCC(C(C)(C)C)C4)c1` (stereo not drawn) [Example 118] it was greater than 10000 nM; in that of `CC(C)(C)C1CCc2nc3cc(C(=O)NCc4ccccc4)[nH]c3cc2C1` (stereo not drawn) [Example 18], greater than 10000 nM; in that of `CC(C)(C)C1CCc2nc3c(CC(N)=O)c(O)[nH]c3cc2C1` (stereo not drawn) [Example 85], greater than 10000 nM.
The same measure for `CC(C)(C)C1CCc2nc3cc(C(=O)NCCCCCCO)[nH]c3cc2C1` (stereo not drawn) [Example 12]: greater than 10000 nM; for `CC(C)(C)C1CCc2nc3cc(C(=O)NCCN)[nH]c3cc2C1` (stereo not drawn) [Example 6]: 100 to 1000 nM; for `CC(C)(C)C1CCc2nc3cc(C(=O)NCCCN)[nH]c3cc2C1` (stereo not drawn) [Example 8]: 1000 to 10000 nM.
Take `CCOC(=O)c1[nH]c2cc3c(nc2c1NCCO)CCC(C(C)(C)C)C3` (stereo not drawn) [Example 65]: the IC50 is greater than 10000 nM.

The values are drawn from patent publication US20100068181A1, “PYRROLO [3, 2-A] PYRIDINE DERIVATIVES FOR INHIBITING KSP KINESIN ACTIVITY” (Schering Corporation, priority 2006, published 2010).
